Laboratory results from article PMC6332036, “The Guareschi Pyridine Scaffold as a Valuable Platform for the Identification of Selective PI3K Inhibitors” (Molecules, 2015).
pIC50: −log10 of the molar value.

Experiments:
PI3Kβ = biological target: T1, PI3Kβ (Homo sapiens, UniProt P42338); assay: ADP-Glo luminescent lipid kinase assay, PI3Kβ; format: biochemical; settings: recombinant enzyme 30 ng, 10 μM ATP, 1 h, room temperature; standard error (SE)
T1 construct: purchased JenaBioscience PR-344
Description: (§1) All the synthesized compounds were then tested in vitro for their ability to inhibit the kinase activity of the PI3Kα, PI3Kβ, PI3Kγ, and PI3Kδ isoforms in a luminescent kinase assay (ADP-GloTM kinase assay) using purified, recombinant human enzymes and ATP. IC50 values were subsequently determined.
(§2) To evaluate the ability of each compound of formula (9a–h) to inhibit the lipid kinase activity of each PI3K isoform, 30 ng of PI3Kα, β, γ, and δ recombinant protein (purchased from JenaBioscience—Jena, Germany; PI3Kα #PR-335, PI3Kβ #PR-344, PI3Kγ #PR-343, PI3Kδ #PR-345) were incubated with at least five different concentrations (from 0.016 to 10 µM) of the compounds (9a–h). The phosphorylation reaction was then started by adding 10 μM of ATP, and 10 µg of lipid micelles containing the appropriate substrate phosphatidylinositol and the phosphatidylserine.
(§3) After 30 min of incubation (1 h for PI3Kβ recombinant protein) at room temperature, the reaction was stopped, and the amount of ADP metabolite was measured with a luminescent kinase assay, ADP-GloTM Kinase Assay (purchased from Promega—USA #V9101). The luminescent signal positively correlated with the formed ADP and, therefore, with the kinase activity. The percentage of kinase activity was calculated over the control samples, containing only dimethyl sulfoxide (DMSO). To derive the IC50 values for each assayed compound (9a–h), all data were plotted on a dose response curve (Graph Pad Software) and the IC50 was calculated by using the nonlinear regression fit (equation (log agonist) vs. response—Sigmoidal dose response). The IC50 was representative of two different experiments performed in triplicate.

PI3Kδ = biological target: T2, PI3Kδ (Homo sapiens, UniProt O00329); assay: ADP-Glo luminescent lipid kinase assay, PI3Kδ; format: biochemical; settings: recombinant enzyme 30 ng, 10 μM ATP, 30 min, room temperature; standard error (SE)
T2 construct: purchased JenaBioscience PR-345
T2 sequence (O00329 whole entry): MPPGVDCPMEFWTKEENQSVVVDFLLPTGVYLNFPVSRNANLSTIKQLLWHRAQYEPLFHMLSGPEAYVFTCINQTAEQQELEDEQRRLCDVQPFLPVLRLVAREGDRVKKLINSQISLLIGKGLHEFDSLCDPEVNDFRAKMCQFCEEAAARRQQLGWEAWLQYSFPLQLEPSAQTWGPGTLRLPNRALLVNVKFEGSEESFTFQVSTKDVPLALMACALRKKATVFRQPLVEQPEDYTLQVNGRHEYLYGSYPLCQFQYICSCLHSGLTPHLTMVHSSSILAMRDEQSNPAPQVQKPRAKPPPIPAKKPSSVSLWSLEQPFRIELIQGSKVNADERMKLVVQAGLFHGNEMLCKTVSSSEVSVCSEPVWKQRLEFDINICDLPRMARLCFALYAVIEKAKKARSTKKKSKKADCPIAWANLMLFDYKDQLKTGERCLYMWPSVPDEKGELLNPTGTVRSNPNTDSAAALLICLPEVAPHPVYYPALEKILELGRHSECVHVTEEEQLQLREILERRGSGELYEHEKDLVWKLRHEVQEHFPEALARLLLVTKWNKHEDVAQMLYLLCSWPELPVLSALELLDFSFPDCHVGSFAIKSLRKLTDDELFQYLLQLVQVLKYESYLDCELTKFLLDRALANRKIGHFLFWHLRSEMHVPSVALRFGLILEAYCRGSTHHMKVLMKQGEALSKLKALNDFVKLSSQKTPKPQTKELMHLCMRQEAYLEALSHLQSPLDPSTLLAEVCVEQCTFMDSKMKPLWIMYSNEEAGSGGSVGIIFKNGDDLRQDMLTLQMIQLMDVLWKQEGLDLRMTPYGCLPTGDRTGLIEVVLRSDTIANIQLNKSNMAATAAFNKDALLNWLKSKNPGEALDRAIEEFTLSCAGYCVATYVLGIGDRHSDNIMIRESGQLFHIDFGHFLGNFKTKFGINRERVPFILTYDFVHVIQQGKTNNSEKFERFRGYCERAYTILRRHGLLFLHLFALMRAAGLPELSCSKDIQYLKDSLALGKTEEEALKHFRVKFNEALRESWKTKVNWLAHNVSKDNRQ
T2 sequence (P27986 whole entry partner): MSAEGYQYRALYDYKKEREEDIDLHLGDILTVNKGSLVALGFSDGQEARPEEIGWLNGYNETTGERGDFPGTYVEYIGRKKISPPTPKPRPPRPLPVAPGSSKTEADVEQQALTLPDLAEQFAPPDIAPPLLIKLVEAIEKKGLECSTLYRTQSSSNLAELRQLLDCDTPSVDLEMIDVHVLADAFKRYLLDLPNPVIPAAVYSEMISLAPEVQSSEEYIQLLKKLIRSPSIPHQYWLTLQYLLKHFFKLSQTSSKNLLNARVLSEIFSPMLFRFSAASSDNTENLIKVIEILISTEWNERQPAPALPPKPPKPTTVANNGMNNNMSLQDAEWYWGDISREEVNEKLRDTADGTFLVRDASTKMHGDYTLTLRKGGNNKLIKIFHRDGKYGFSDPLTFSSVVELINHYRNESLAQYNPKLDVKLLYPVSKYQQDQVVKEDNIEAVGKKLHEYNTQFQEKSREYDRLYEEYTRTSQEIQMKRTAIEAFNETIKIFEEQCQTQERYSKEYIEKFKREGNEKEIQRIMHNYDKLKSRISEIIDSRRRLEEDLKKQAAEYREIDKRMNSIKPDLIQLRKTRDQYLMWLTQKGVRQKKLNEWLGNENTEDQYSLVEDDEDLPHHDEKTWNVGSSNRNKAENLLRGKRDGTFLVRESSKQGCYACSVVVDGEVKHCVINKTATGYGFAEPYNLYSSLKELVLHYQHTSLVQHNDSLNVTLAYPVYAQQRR
Description: as §1, §2, §3

PI3Kα = biological target: T3, PI3Kα (Homo sapiens, UniProt P42336); assay: ADP-Glo luminescent lipid kinase assay, PI3Kα; format: biochemical; settings: recombinant enzyme 30 ng, 10 μM ATP, 30 min, room temperature; standard error (SE)
T3 construct: purchased JenaBioscience PR-335
T3 sequence (P42336 whole entry): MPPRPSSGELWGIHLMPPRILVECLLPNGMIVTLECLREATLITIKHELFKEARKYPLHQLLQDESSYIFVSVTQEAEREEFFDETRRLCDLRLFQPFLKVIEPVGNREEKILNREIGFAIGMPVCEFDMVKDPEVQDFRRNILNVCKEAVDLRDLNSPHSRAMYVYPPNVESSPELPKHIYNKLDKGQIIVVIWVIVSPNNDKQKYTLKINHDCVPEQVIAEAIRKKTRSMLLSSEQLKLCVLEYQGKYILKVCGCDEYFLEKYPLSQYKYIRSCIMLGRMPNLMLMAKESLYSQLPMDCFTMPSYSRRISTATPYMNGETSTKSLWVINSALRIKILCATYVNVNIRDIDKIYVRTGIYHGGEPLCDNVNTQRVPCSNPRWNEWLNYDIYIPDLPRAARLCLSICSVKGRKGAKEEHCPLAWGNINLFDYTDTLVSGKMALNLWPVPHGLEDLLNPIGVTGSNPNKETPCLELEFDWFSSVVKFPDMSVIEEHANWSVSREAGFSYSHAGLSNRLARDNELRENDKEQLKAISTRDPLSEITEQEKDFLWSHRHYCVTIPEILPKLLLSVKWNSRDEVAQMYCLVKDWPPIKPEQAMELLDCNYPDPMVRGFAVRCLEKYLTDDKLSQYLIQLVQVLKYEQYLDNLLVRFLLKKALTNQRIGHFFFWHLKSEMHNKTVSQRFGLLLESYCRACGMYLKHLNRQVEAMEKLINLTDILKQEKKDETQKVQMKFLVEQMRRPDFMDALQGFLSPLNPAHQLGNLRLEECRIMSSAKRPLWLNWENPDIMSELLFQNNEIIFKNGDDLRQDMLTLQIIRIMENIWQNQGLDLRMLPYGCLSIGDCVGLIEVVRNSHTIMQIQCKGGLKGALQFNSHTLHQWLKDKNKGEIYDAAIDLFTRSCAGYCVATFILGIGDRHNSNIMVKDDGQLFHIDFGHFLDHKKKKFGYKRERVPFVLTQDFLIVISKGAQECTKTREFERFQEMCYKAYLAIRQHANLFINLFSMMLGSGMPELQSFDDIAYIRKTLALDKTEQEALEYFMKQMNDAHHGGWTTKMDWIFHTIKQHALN
T3 sequence (P27986 whole entry partner): as the sequence (P27986 whole entry partner) above
Description: as §1, §2, §3

PI3Kγ = biological target: T4, PI3Kγ (Homo sapiens, UniProt P48736); assay: ADP-Glo luminescent lipid kinase assay, PI3Kγ; format: biochemical; settings: recombinant enzyme 30 ng, 10 μM ATP, 30 min, room temperature; standard error (SE)
T4 construct: purchased JenaBioscience PR-343
T4 sequence (P48736 whole entry): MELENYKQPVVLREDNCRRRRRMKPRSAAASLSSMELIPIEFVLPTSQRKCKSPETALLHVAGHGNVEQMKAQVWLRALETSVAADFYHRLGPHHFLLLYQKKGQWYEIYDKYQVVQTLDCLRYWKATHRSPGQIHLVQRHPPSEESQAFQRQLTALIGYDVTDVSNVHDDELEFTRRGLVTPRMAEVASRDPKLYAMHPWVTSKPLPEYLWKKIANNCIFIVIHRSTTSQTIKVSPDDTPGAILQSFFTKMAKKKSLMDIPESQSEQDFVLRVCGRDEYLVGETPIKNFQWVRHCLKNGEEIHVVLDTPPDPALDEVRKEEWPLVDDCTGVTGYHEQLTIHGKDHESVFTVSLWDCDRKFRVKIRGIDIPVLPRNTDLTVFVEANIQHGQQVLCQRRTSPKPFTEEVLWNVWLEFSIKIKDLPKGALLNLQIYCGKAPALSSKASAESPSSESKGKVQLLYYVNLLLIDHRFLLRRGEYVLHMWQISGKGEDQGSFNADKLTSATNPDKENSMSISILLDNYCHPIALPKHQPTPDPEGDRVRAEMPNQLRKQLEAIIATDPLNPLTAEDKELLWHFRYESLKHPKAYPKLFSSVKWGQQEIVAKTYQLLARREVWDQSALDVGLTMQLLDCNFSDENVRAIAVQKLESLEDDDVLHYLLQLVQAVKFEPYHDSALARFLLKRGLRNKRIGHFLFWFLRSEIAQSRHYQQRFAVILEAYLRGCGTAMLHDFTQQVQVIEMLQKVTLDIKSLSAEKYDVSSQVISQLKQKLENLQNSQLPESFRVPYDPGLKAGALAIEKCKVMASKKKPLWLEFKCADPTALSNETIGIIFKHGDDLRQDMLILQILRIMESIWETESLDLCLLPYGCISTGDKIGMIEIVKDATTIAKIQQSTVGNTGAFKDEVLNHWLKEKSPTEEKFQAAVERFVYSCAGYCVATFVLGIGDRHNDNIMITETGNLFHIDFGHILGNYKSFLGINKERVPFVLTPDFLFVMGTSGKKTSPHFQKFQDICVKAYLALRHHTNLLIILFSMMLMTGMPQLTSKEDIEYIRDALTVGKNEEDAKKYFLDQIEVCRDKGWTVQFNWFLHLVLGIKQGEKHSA
Description: as §1, §2, §3

PI3Kα signaling pathway = assay: Cell-based assay: P-Akt in insulin-stimulated NIH3T3 cells (Western blot); settings: Mus musculus, 1.5 h pre-treatment, 5 min stimulation with 1 μM insulin, SE ± 0.6, read-out: IC50, residual P-Akt
Description: Subsequently, compound 9b was analyzed on cell-based assay in order to evaluate its ability to inhibit the PI3Kα signaling pathway on cells. It is well established that insulin signaling is mostly regulated by PI3Kα [29]. The activated insulin receptor triggers PI3Kα activity mainly by binding and phosphorylating adaptor proteins of the IRS (insulin receptor substrate) family. Once activated, PI3Kα produces the PtdIns(3,4,5)P3 lipid product, which in turn mediates the activation of downstream effectors such as Akt. Thus, phosphorylation of Akt results as a key event of the PI3Kα activation. […] A dose response curve and an IC50 value were determined.
NIH3T3 cells were cultured in […] (DMEM) (GIBCO-Thermo Fisher Scientific Inc., Waltham, MA, USA) supplemented with 10% Fetal Bovine Serum (FBS) (GIBCO-Thermo Fisher Scientific Inc.), 100 units/mL penicillin (GIBCO-Thermo Fisher Scientific Inc.), and 100 μg/mL streptomycin (GIBCO- Thermo Fisher Scientific Inc.). […] The P-Akt production is detected by Western blot analysis and quantified with ChemiDoc™ XRS system. From the absolute values, a percentage of residual P-Akt is calculated for each inhibitor concentration by using the control vehicle as 100%. […]

T1 sequence (P42338 whole entry): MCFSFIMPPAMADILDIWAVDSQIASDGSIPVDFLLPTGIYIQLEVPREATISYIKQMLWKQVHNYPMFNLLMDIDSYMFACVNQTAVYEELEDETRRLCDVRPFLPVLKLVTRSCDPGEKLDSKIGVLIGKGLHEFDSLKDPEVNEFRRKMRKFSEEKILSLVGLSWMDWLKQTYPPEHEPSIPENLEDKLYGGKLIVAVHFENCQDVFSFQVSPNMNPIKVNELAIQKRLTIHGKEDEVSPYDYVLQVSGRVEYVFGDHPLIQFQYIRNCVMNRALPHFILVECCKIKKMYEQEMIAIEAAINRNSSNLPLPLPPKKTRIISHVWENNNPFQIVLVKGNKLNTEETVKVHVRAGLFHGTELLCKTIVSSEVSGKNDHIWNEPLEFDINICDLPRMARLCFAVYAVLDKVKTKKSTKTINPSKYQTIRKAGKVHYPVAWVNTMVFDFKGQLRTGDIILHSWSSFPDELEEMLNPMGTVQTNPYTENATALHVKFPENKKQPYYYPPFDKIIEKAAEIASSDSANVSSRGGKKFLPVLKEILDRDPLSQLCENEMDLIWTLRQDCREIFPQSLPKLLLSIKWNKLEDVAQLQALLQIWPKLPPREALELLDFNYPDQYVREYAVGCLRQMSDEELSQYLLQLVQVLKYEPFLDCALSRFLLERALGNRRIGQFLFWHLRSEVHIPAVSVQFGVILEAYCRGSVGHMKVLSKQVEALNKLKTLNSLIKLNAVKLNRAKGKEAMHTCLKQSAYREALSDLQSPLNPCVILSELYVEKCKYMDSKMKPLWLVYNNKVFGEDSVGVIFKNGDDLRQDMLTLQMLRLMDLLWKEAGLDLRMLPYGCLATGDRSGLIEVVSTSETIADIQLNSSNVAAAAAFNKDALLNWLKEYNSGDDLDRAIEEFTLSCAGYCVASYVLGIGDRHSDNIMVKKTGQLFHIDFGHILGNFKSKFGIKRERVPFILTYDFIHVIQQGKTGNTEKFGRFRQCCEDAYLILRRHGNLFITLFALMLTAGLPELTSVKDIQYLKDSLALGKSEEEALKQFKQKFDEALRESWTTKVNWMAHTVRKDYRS
T1 sequence (P27986 whole entry partner): as the sequence (P27986 whole entry partner) above

Row | SMILES | pIC50 (PI3Kβ) | pIC50 (PI3Kδ) | pIC50 (PI3Kα) | pIC50 (PI3Kγ) | melting point | pIC50 (PI3Kα signaling pathway)
1 | COc1cccc(-c2cc(N3CCOCC3)nc(-c3cccc(O)c3)c2C#N)c1 [Compound 9d] | 5.63 | 5.96 | 6.20 | 5.79 | 208 to 209 °C (dec.) | –
2 | COc1ccc(-c2cc(N3CCOCC3)nc(-c3cccc(O)c3)c2C#N)cc1OC [Compound 9e] | 5.19 | 6.05 | 6.08 | 5.54 | 142 to 144 °C | –
3 | N#Cc1c(-c2ccncc2)cc(N2CCOCC2)nc1-c1cccc(O)c1 [Compound 9g] | < 5.00 | 6.07 | 5.91 | 5.81 | 290 to 292 °C (dec.) | –
4 | N#Cc1c(-c2cccnc2)cc(N2CCOCC2)nc1-c1cccc(O)c1 [Compound 9h] | < 5.00 | 6.15 | 6.01 | 5.61 | 239 to 242 °C (dec.) | –

The next lines start with the values.

Row | pIC50 (PI3Kβ) | pIC50 (PI3Kδ) | pIC50 (PI3Kα) | pIC50 (PI3Kγ) | melting point | pIC50 (PI3Kα signaling pathway) | SMILES
5 | 5.70 | 5.91 | 6.89 | < 5.00 | 221 to 223 °C (dec.) | – | N#Cc1c(-c2ccccc2)cc(N2CCOCC2)nc1-c1cccc(O)c1 [Compound 9a]
6 | < 5.00 | < 5.00 | 6.20 | < 5.00 | 240 to 242 °C | 5.55 | N#Cc1c(-c2ccc(Oc3ccccc3)cc2)cc(N2CCOCC2)nc1-c1cccc(O)c1 [Compound 9b]
7 | < 5.00 | 5.86 | 5.75 | 5.66 | 216 to 217 °C | – | COc1ccc(-c2cc(N3CCOCC3)nc(-c3cccc(O)c3)c2C#N)cc1 [Compound 9c]
8 | < 5.00 | 5.88 | < 5.00 | 5.35 | 117 to 120 °C (dec.) | – | Cc1ccc(-c2cc(N3CCOCC3)nc(-c3cccc(O)c3)c2C#N)cc1C [Compound 9f]
9 | 5.81 | 6.38 | 5.93 | 5.98 | 195 to 197 °C | – | Cc1cc(N2CCOCC2)nc(-c2cccc(O)c2)c1C#N [Compound 10, 2-(3-Hydroxyphenyl)-6-morpholino-4-methylnicotinonitrile]
